# Assay results from patent US20140323504A1, “Pyrazolo[4,3-c]Pyridine Derivatives As Kinase Inhibitors” (Cellzome Limited, priority 2011, published 2014).
# Tested on: STAT5 phosphorylation in IL-2 stimulated YT cells
# Assay: pSTAT5 cell assay (IL-2 stimulated YT cells, AlphaScreen)
# Type: cell-based
# Settings: IL-2 stimulated human YT cells, 1 h compound incubation
# Text: STAT5 phosphorylation represents one of the proximal events in the signalling cascade downstream of JAK3 activation. Therefore STAT5 phosphorylation is an appropriate readout to assess the mechanistic effect of JAK3 inhibition. Stimulation of human YT cells, an NK-like cell line, with interleukin-2 (IL-2) results in phosphorylation of STATS at tyrosine residue 694 (Tyr694) that can be quantitatively measured by immunodetection with specific antibodies and an appropriate detection method, in this case AlphaScreen assay technology.
# Human YT cells were grown in RPMI medium (Lonza, BE12-167) with 2 mM L-Glutamine (Invitrogen, 25030-024) and 10% heat-inactivated FBS (Invitrogen, 10106-169) and kept in a humidified incubator (37° C., 5% CO2). Cells were harvested by centrifugation, washed once with HBSS (Invitrogen, 14180-046), resuspended in HESS at 1.5×10^6 cells/ml and 0.9×10^4 cells were seeded in 6 μl per well in a 96 well White plate (PerkinElmer, 6005569).
# Test compounds were dissolved in DMSO and a 1:3 dilution series (9 steps) was prepared. To generate a dose response curve, […] of fourfold concentrated compound in 4% DMSO/HBSS were added to each cell sample in the 96 well plate resulting in a final DMSO concentration of 1% DMSO. Cells were incubated for one hour in a humidified incubator (37° C., 5% CO2). To each well 3 μl of a fourfold concentrated IL-2 solution (Recombinant human IL-2, Peprotech 200-02; 120 nM solution in HBSS) was added and incubated for 30 minutes at room temperature. Cells were lysed by adding 3 μl of 5× lysis buffer (SureFire lysis buffer; Perkin Elmer, TGRS5S10K) and incubated for 10 minutes at room temperature with gentle shaking.
# For signal detection by AlphaScreen® technology the SureFire phospho-STAT5 (Tyr694Tyr699) kit was used according to instructions provided by the manufacturer (Perkin Elmer, TGRS5S10K). Acceptor beads were added as recommended by the manufacturer (Reactivation buffer/Activation buffer/Acceptor beads at a ratio of 40:10:1) and incubated at room temperature for 1.5 hours with gentle shaking. Then donor beads were added as recommended (Dilution buffer/Donor beads at a ratio of 20:1) and incubated at room temperature for 1.5 hours with gentle shaking. Plates were read on an Envision instrument (Perkin Elmer) with the AlphaScreen protocol. Data were analysed in BioAssay using the nonlinear regression for a sigmoidal dose-response with a variable slope.
row,Compound,IC50 [nM]
1,"C=C(C)C(=O)Nc1cccc(Cn2ncc3cnc(Nc4cnn(C)c4)nc32)c1 [Example 5, N-(3-((6-((1-Methyl-1H-pyrazol-4-yl)amino)-1H-pyrazolo[3,4-d]pyrimidin-1-yl)methyl)phenyl)methacrylamide]",2000
2,"C=CC(=O)Nc1cc(Cn2ncc3cnc(Nc4cnn(C)c4)nc32)ccc1F [Example 2, N-(2-Fluoro-5-((6-((1-methyl-1H-pyrazol-4-yl)amino)-1H-pyrazolo[3,4-c]pyrimidin-1-yl)methyl)phenyl)acrylamide]",378
3,"C=CS(=O)(=O)Nc1cccc(Cn2ccc3cnc(Nc4cnn(C)c4)nc32)c1 [Example 7, N-(3-((2-((1-Methyl-1H-pyrazol-4-yl)amino)-7H-pyrrolo[2,3-d]pyrimidin-7-yl)methyl)phenyl)ethenesulfonamide]",79

# The remaining compounds from weak to strong by IC50, led by results:
row,IC50 [nM],Compound
1,74,"C=CS(=O)(=O)Nc1cccc(Cn2ncc3cnc(Nc4cnn(C)c4)nc32)c1 [Example 4, N-(3-((6-((1-Methyl-1H-pyrazol-4-yl)amino)-1H-pyrazolo[3,4-d]pyrimidin-1-yl)methyl)phenyl)ethenesulfonamide]"
2,33,"C#CC(=O)Nc1cccc(Cn2ncc3cnc(Nc4cnn(C)c4)nc32)c1 [Example 3, N-(3-((6-((1-Methyl-1H-pyrazol-4-yl)amino)-1H-pyrazolo[3,4-d]pyrimidin-1-yl)methyl)phenyl)propiolamide]"
3,31,"C=CC(=O)Nc1cccc(Cn2ncc3cnc(Nc4cnn(C)c4)nc32)c1 [Example 1, N-(3-((6-((1-Methyl-1H-pyrazol-4-yl)amino)-1H-pyrazolo[3,4-d]pyrimidin-1-yl)methyl)phenyl)acrylamide]"
